According to ChEMBL document CHEMBL1135136, “Carbonic anhydrase inhibitors. Preparation of potent sulfonamides inhibitors incorporating bile acid tails” (Bioorg Med Chem Lett, 2002):

How the values were obtained:
[1] = target: Carbonic anhydrase 1 (Homo sapiens, UniProt P00915)
Description: Inhibitory activity against human recombinant carbonic anhydrase I (CA1)

[2] = target: T1, Carbonic anhydrase 4 (Bos taurus, UniProt Q95323)
T1 sequence (Q95323 whole entry): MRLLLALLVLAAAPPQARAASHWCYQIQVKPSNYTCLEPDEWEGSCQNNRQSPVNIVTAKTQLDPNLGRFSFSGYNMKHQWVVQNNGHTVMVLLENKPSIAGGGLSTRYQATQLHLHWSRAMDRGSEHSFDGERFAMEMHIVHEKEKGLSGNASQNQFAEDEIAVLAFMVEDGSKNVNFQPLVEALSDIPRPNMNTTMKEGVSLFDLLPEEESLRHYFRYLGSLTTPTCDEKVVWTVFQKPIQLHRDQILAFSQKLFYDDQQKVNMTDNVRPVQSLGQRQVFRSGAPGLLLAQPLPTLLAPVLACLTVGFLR
Description: Inhibitory activity against bovine carbonic anhydrase IV (CA4), obtained from bovine lung microsomes

[3] = target: Carbonic anhydrase 2 (Homo sapiens, UniProt P00918)
Description: Inhibitory activity against human recombinant carbonic anhydrase II (CA2)

Chain of Carbonic anhydrase 1 (P00915 whole entry): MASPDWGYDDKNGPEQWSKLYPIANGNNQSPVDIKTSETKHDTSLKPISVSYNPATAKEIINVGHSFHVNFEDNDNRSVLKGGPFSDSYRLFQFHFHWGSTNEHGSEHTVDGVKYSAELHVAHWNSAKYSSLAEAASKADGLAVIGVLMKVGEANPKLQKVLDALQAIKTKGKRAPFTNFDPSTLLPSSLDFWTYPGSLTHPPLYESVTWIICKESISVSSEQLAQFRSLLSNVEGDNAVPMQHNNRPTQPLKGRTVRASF

| Compound | Ki [1] [nM] | Ki [2] [nM] | Ki [3] [nM] |
| --- | --- | --- | --- |
| C[C@H](CCC(=O)Nc1ccc(S(N)(=O)=O)cc1I)[C@H]1CC[C@H]2[C@@H]3[C@H](O)C[C@@H]4C[C@H](O)CC[C@]4(C)[C@H]3CC[C@]12C | 521 | 110 | 55 |
| C[C@H](CCC(=O)Nc1ccc(S(N)(=O)=O)cc1)[C@H]1CC[C@H]2[C@@H]3C(=O)C[C@@H]4CC(=O)CC[C@]4(C)[C@H]3CC(=O)[C@]12C | 3700 | 147 | 70 |
| C[C@H](CCC(=O)Oc1ccc2nc(S(N)(=O)=O)sc2c1)[C@H]1CC[C@H]2[C@@H]3CC[C@@H]4C[C@H](O)CC[C@]4(C)[C@H]3C[C@H](O)[C@]12C | 39 | 9 | 4.8 |
| C[C@H](CCC(=O)Nc1ccc2nc(S(N)(=O)=O)sc2c1)[C@H]1CC[C@H]2[C@@H]3C(=O)C[C@@H]4CC(=O)CC[C@]4(C)[C@H]3CC(=O)[C@]12C | 39 | 7 | 0.8 |
| C[C@H](CCC(=O)Nc1ccc(S(N)(=O)=O)cc1Cl)[C@H]1CC[C@H]2[C@@H]3CC[C@@H]4C[C@H](O)CC[C@]4(C)[C@H]3C[C@H](O)[C@]12C | 890 | 151 | 77 |
| C[C@H](CCC(=O)Nc1ccccc1S(N)(=O)=O)[C@H]1CC[C@H]2[C@@H]3[C@@H](O)C[C@@H]4C[C@H](O)CC[C@]4(C)[C@H]3CC[C@]12C | 8400 | 500 | 180 |
| C[C@H](CCC(=O)OCCc1ccc(S(N)(=O)=O)cc1)[C@H]1CC[C@H]2[C@@H]3CC[C@@H]4C[C@H](O)CC[C@]4(C)[C@H]3C[C@H](O)[C@]12C | 885 | 300 | 78 |
| C[C@H](CCC(=O)Nc1ccc(S(N)(=O)=O)cc1F)[C@H]1CC[C@H]2[C@@H]3[C@@H](O)C[C@@H]4C[C@H](O)CC[C@]4(C)[C@H]3CC[C@]12C | 180 | 24 | 11 |
| C[C@H](CCC(=O)Nc1cccc(S(N)(=O)=O)c1)[C@H]1CC[C@H]2[C@@H]3[C@@H](O)C[C@@H]4C[C@H](O)CC[C@]4(C)[C@H]3CC[C@]12C | 7050 | 480 | 157 |
| C[C@H](CCC(=O)/N=c1\sc(S(N)(=O)=O)nn1C)[C@H]1CC[C@H]2[C@@H]3C(=O)C[C@@H]4CC(=O)CC[C@]4(C)[C@H]3CC(=O)[C@]12C | 29 | 8 | 1 |
| C[C@H](CCC(=O)OCCOc1ccc2nc(S(N)(=O)=O)sc2c1)[C@H]1CC[C@H]2[C@@H]3C(=O)C[C@@H]4CC(=O)CC[C@]4(C)[C@H]3CC(=O)[C@]12C | 30 | 6 | 0.8 |
| C[C@H](CCC(=O)Nc1ccc2nc(S(N)(=O)=O)sc2c1)[C@H]1CC[C@H]2[C@@H]3CC[C@@H]4C[C@H](O)CC[C@]4(C)[C@H]3CC[C@]12C | 48 | 9 | 2.8 |
| C[C@H](CCC(=O)Nc1ccc(S(N)(=O)=O)cc1Br)[C@H]1CC[C@H]2[C@@H]3[C@H](O)C[C@@H]4C[C@H](O)CC[C@]4(C)[C@H]3C[C@H](O)[C@]12C | 600 | 60 | 35 |
| C[C@H](CCC(=O)Nc1ccc(S(N)(=O)=O)cc1F)[C@H]1CC[C@H]2[C@@H]3CC[C@@H]4C[C@H](O)CC[C@]4(C)[C@H]3CC[C@]12C | 360 | 36 | 29 |
| C[C@H](CCC(=O)NCCc1ccc(S(N)(=O)=O)cc1)[C@H]1CC[C@H]2[C@@H]3CC[C@@H]4C[C@H](O)CC[C@]4(C)[C@H]3CC[C@]12C | 650 | 70 | 41 |
| C[C@H](CCC(=O)Nc1ccccc1S(N)(=O)=O)[C@H]1CC[C@H]2[C@@H]3[C@H](O)C[C@@H]4C[C@H](O)CC[C@]4(C)[C@H]3C[C@H](O)[C@]12C | 25500 | 1200 | 275 |
| C[C@H](CCC(=O)Nc1ccc(S(N)(=O)=O)cc1Br)[C@H]1CC[C@H]2[C@@H]3CC[C@@H]4C[C@H](O)CC[C@]4(C)[C@H]3C[C@H](O)[C@]12C | 365 | 50 | 31 |
| C[C@H](CCC(=O)/N=c1\sc(S(N)(=O)=O)nn1C)[C@H]1CC[C@H]2[C@@H]3CC[C@@H]4C[C@H](O)CC[C@]4(C)[C@H]3C[C@H](O)[C@]12C | 240 | 63 | 11 |
| C[C@H](CCC(=O)Nc1ccccc1S(N)(=O)=O)[C@H]1CC[C@H]2[C@@H]3CC[C@@H]4C[C@H](O)CC[C@]4(C)[C@H]3CC[C@]12C | 9200 | 750 | 270 |

| Compound | Ki [1] [nM] | Ki [2] [nM] | Ki [3] [nM] |
| --- | --- | --- | --- |
| C[C@H](CCC(=O)OCc1ccc(S(N)(=O)=O)cc1)[C@H]1CC[C@H]2[C@@H]3[C@H](O)C[C@@H]4C[C@H](O)CC[C@]4(C)[C@H]3C[C@H](O)[C@]12C | 1200 | 280 | 97 |
| C[C@H](CCC(=O)OCCOc1ccc2nc(S(N)(=O)=O)sc2c1)[C@H]1CC[C@H]2[C@@H]3[C@H](O)C[C@@H]4C[C@H](O)CC[C@]4(C)[C@H]3CC[C@]12C | 44 | 9 | 5.2 |
| C[C@H](CCC(=O)OCCOc1ccc2nc(S(N)(=O)=O)sc2c1)[C@H]1CC[C@H]2[C@@H]3CC[C@@H]4C[C@H](O)CC[C@]4(C)[C@H]3CC[C@]12C | 36 | 8 | 1.4 |
| C[C@H](CCC(=O)Oc1ccc2nc(S(N)(=O)=O)sc2c1)[C@H]1CC[C@H]2[C@@H]3[C@H](O)C[C@@H]4C[C@H](O)CC[C@]4(C)[C@H]3C[C@H](O)[C@]12C | 32 | 9 | 4 |
| C[C@H](CCC(=O)OCc1ccc(S(N)(=O)=O)cc1)[C@H]1CC[C@H]2[C@@H]3[C@H](O)C[C@@H]4C[C@H](O)CC[C@]4(C)[C@H]3CC[C@]12C | 1230 | 340 | 98 |
| C[C@H](CCC(=O)NNc1ccc(S(N)(=O)=O)cc1)[C@H]1CC[C@H]2[C@@H]3[C@H](O)C[C@@H]4C[C@H](O)CC[C@]4(C)[C@H]3C[C@H](O)[C@]12C | 32100 | 1050 | 315 |
| C[C@H](CCC(=O)Oc1ccc2nc(S(N)(=O)=O)sc2c1)[C@H]1CC[C@H]2[C@@H]3[C@@H](O)C[C@@H]4C[C@H](O)CC[C@]4(C)[C@H]3CC[C@]12C | 31 | 6 | 0.7 |
| C[C@H](CCC(=O)Nc1ccc(S(N)(=O)=O)cc1Br)[C@H]1CC[C@H]2[C@@H]3C(=O)C[C@@H]4CC(=O)CC[C@]4(C)[C@H]3CC(=O)[C@]12C | 66 | 28 | 9 |
| C[C@H](CCC(=O)NCCc1ccc(S(N)(=O)=O)cc1)[C@H]1CC[C@H]2[C@@H]3[C@H](O)C[C@@H]4C[C@H](O)CC[C@]4(C)[C@H]3C[C@H](O)[C@]12C | 3400 | 220 | 86 |
| C[C@H](CCC(=O)NCCc1ccc(S(N)(=O)=O)cc1)[C@H]1CC[C@H]2[C@@H]3[C@@H](O)C[C@@H]4C[C@H](O)CC[C@]4(C)[C@H]3CC[C@]12C | 295 | 34 | 14 |
| C[C@H](CCC(=O)Nc1nnc(S(N)(=O)=O)s1)[C@H]1CC[C@H]2[C@@H]3[C@@H](O)C[C@@H]4C[C@H](O)CC[C@]4(C)[C@H]3CC[C@]12C | 48 | 16 | 0.9 |
| C[C@H](CCC(=O)NCc1ccc(S(N)(=O)=O)cc1)[C@H]1CC[C@H]2[C@@H]3C(=O)C[C@@H]4CC(=O)CC[C@]4(C)[C@H]3CC(=O)[C@]12C | 600 | 40 | 26 |
| C[C@H](CCC(=O)Nc1ccc(S(N)(=O)=O)cc1Cl)[C@H]1CC[C@H]2[C@@H]3[C@H](O)C[C@@H]4C[C@H](O)CC[C@]4(C)[C@H]3CC[C@]12C | 950 | 150 | 80 |
| C[C@H](CCC(=O)Nc1ccc(S(N)(=O)=O)cc1Cl)[C@H]1CC[C@H]2[C@@H]3[C@@H](O)C[C@@H]4C[C@H](O)CC[C@]4(C)[C@H]3CC[C@]12C | 190 | 30 | 17 |
| C[C@H](CCC(=O)Nc1ccccc1S(N)(=O)=O)[C@H]1CC[C@H]2[C@@H]3[C@H](O)C[C@@H]4C[C@H](O)CC[C@]4(C)[C@H]3CC[C@]12C | 22100 | 900 | 245 |
| C[C@H](CCC(=O)OCCc1ccc(S(N)(=O)=O)cc1)[C@H]1CC[C@H]2[C@@H]3[C@H](O)C[C@@H]4C[C@H](O)CC[C@]4(C)[C@H]3CC[C@]12C | 1100 | 320 | 90 |
| C[C@H](CCC(=O)OCCc1ccc(S(N)(=O)=O)cc1)[C@H]1CC[C@H]2[C@@H]3C(=O)C[C@@H]4CC(=O)CC[C@]4(C)[C@H]3CC(=O)[C@]12C | 415 | 123 | 50 |
| C[C@H](CCC(=O)Nc1ccc(S(N)(=O)=O)cc1Cl)[C@H]1CC[C@H]2[C@@H]3[C@H](O)C[C@@H]4C[C@H](O)CC[C@]4(C)[C@H]3C[C@H](O)[C@]12C | 970 | 168 | 82 |
